Assay results from ChEMBL document CHEMBL1201862, “PubChem BioAssay data set” (2004).
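Protocol summary: plate cells (96-well), add compound at 5 concentrations, incubate 48 h, interpolate endpoints linearly. At the GI50, growth is halved.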 Active and inactive are the calls of the source. No stated cut-off is given here; in the data, active = GI50 up to about 1.1 µM and inactive = higher.

Assays:
Assay in all cases: growth of human tumour cells (NCI), 48 h
CCRF-CEM = test system: CCRF-CEM
786-0 = test system: 786-0
MDA-MB-231 = test system: MDA-MB-231
ACHN = test system: ACHN
SW-620 = test system: SW-620
RPMI-8226 = test system: RPMI-8226
MOLT-4 = test system: MOLT-4
SN12C = test system: SN12C
SK-OV-3 = test system: SK-OV-3
HCC 2998 = test system: HCC 2998
U-251 = test system: U-251
SK-MEL-28 = test system: SK-MEL-28
A498 = test system: A498
CAKI-1 = test system: CAKI-1
UO-31 = test system: UO-31
NCI-H226 = test system: NCI-H226
SR = test system: SR
NCI-H522 = test system: NCI-H522
IGROV-1 = test system: IGROV-1
BT-549 = test system: BT-549
NCI-H460 = test system: NCI-H460
UACC-257 = test system: UACC-257
SNB-75 = test system: SNB-75
DU-145 = test system: DU-145
A549 = test system: A549
HCT-15 = test system: HCT-15
T47D = test system: T47D
OVCAR-3 = test system: OVCAR-3
SK-MEL-2 = test system: SK-MEL-2
COLO 205 = test system: COLO 205
SF-295 = test system: SF-295
HT-29 = test system: HT-29
TK-10 = test system: TK-10
OVCAR-5 = test system: OVCAR-5
UACC-62 = test system: UACC-62
MCF7 = test system: MCF7
RXF 393 = test system: RXF 393
NCI/ADR-RES = test system: NCI/ADR-RES
OVCAR-8 = test system: OVCAR-8
HOP-62 = test system: HOP-62
Hs-578T = test system: Hs-578T
K562 = test system: K562
LOX IMVI = test system: LOX IMVI
OVCAR-4 = test system: OVCAR-4
SF-268 = test system: SF-268
MDA-N = test system: MDA-N
EKVX = test system: EKVX
M14 = test system: M14
HL-60 = test system: HL-60
HCT-116 = test system: HCT-116
KM12 = test system: KM12
SF-539 = test system: SF-539
HOP-92 = test system: HOP-92
Malme-3M = test system: Malme-3M
PC-3 = test system: PC-3
SK-MEL-5 = test system: SK-MEL-5
NCI-H23 = test system: NCI-H23
MDA-MB-435 = test system: MDA-MB-435
SNB-19 = test system: SNB-19

Measured: GI50

CN1C[C@@H]2CCCN2P1Oc1cccc2cccnc12 (some centres undefined)
inactive: CCRF-CEM 2.41 µM | 786-0 > 100 µM | MDA-MB-231 42.6 µM | ACHN 49 µM | SW-620 18.7 µM | RPMI-8226 13.2 µM | MOLT-4 6.76 µM | SN12C 22.9 µM | SK-OV-3 > 100 µM | HCC 2998 47.3 µM | U-251 35.2 µM | SK-MEL-28 73.1 µM | A498 > 100 µM | CAKI-1 35.3 µM | UO-31 34.9 µM | NCI-H226 80.9 µM | SR 25.7 µM | NCI-H522 18.1 µM | IGROV-1 32.9 µM | BT-549 > 100 µM | NCI-H460 35.4 µM | UACC-257 29.4 µM | SNB-75 > 100 µM | DU-145 83.4 µM | A549 44.5 µM | T47D 9.77 µM | OVCAR-3 23.4 µM | SK-MEL-2 50.7 µM | COLO 205 30.5 µM | SF-295 85.7 µM | HT-29 33 µM | TK-10 75.7 µM | OVCAR-5 32.6 µM | UACC-62 39.3 µM | MCF7 12 µM | RXF 393 > 100 µM | NCI/ADR-RES 19.8 µM | OVCAR-8 42.6 µM | HOP-62 52.1 µM | Hs-578T 17.5 µM | K562 9.42 µM | LOX IMVI 97.5 µM | OVCAR-4 32.8 µM | SF-268 16 µM | MDA-N 55.2 µM | EKVX 29 µM | M14 33.7 µM | HL-60 16.1 µM | HCT-116 8.69 µM | KM12 40.2 µM | SF-539 44.9 µM | HOP-92 > 100 µM | Malme-3M 25.8 µM | PC-3 27.5 µM | SK-MEL-5 41.5 µM | NCI-H23 17.9 µM | MDA-MB-435 45.6 µM | SNB-19 > 100 µM
16.6 µM: HCT-15
